Assay results reported in the supplement of paper PMC4449167.
± gives the standard deviation of the averaged measurements.

System: WB-F344
Test: gap junctional intercellular communication (dye spread) relative to vehicle control (fraction of control); higher = more gap junction communication (less inhibition)
Protocol: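 Confluent WB-F344 rat liver epithelial cells were pretreated with vehicle, D609 (PC-PLC inhibitor, 50 µM, 20 min), U0126 (MEK1/2 inhibitor, 20 µM, 30 min) or resveratrol (100 µM, 15 min), then exposed to a GJIC-dysregulating chemical at the listed dose and time. GJIC was measured by scalpel loading-dye transfer with Lucifer Yellow (3 min), and the dye-spread area was quantified in ImageJ as a fraction of the vehicle control (FOC). Individual values come from at least 3 independent experiments.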

[1] = pretreatment: D609+GJIC dysreg.
[2] = pretreatment: U0126+GJIC dysreg.

Compound: CC(C)C[C@H](NC(=O)[C@H](CC(C)C)NC(=O)[C@H](Cc1ccccc1)NC(=O)[C@@H](N)CO)C(=O)N[C@@H](CCCN=C(N)N)C(=O)N[C@@H](CC(N)=O)C(=O)O [Thrombin receptor activator peptide-6] (compound abbreviation / co-treatment: TRAP-6, exposure (dose, time): 50 µM, 30 min)
- gap junctional intercellular communication [1]: 0.588 ± 0.089
- gap junctional intercellular communication (pretreatment: GJIC dysreg.): 0.4 ± 0.058
- gap junctional intercellular communication (pretreatment: RES+GJIC dysreg.): 0.967 ± 0.04
- gap junctional intercellular communication [2]: 1.05 ± 0.036

Compound: CC1(C)[C@@H](O)CC[C@]2(C)[C@H]3C(=O)C=C4[C@@H]5C[C@@](C)(C(=O)O)CC[C@]5(C)CC[C@@]4(C)[C@]3(C)CC[C@@H]12 [ß-Glycyrrhetinic acid] (compound abbreviation / co-treatment: BGA, exposure (dose, time): 30-50 µM, 15 min)
- gap junctional intercellular communication (dose note: (30 uM), pretreatment: D609+GJIC dysreg.): 0.242 ± 0.036
- gap junctional intercellular communication (dose note: (30 uM), pretreatment: GJIC dysreg.): 0.353 ± 0.03
- gap junctional intercellular communication (dose note: (30 uM), pretreatment: RES+GJIC dysreg.): 0.302 ± 0.023
- gap junctional intercellular communication (dose note: (30 uM), pretreatment: U0126+GJIC dysreg.): 0.344 ± 0.053
- gap junctional intercellular communication (dose note: (50 uM), pretreatment: D609+GJIC dysreg.): 0.225 ± 0.034
- gap junctional intercellular communication (dose note: (50 uM), pretreatment: GJIC dysreg.): 0.242 ± 0.042
- gap junctional intercellular communication (dose note: (50 uM), pretreatment: RES+GJIC dysreg.): 0.243 ± 0.038
- gap junctional intercellular communication (dose note: (50 uM), pretreatment: U0126+GJIC dysreg.): 0.269 ± 0.028

Compound: Clc1cc(Cl)c(-c2cc(Cl)c(Cl)cc2Cl)cc1Cl [2,2',4,4',5,5'-Hexachlorobiphenyl] (compound abbreviation / co-treatment: PCB 153, exposure (dose, time): 50 µM, 30 min)
- gap junctional intercellular communication [1]: 0.781 ± 0.17
- gap junctional intercellular communication (pretreatment: GJIC dysreg.): 0.353 ± 0.093
- gap junctional intercellular communication (pretreatment: RES+GJIC dysreg.): 0.857 ± 0.11
- gap junctional intercellular communication [2]: 0.278 ± 0.083

Compound: O=C(O)C(F)(F)C(F)(F)C(F)(F)C(F)(F)C(F)(F)C(F)(F)C(F)(F)F [Perfluorooctanoic acid] (compound abbreviation / co-treatment: PFOA, exposure (dose, time): 80 µM, 10 min)
- gap junctional intercellular communication [1]: 0.661 ± 0.15
- gap junctional intercellular communication (pretreatment: GJIC dysreg.): 0.24 ± 0.054
- gap junctional intercellular communication (pretreatment: RES+GJIC dysreg.): 0.743 ± 0.12
- gap junctional intercellular communication [2]: 0.44 ± 0.12

Compound: Cc1c2ccccc2c(C)c2ccccc12 [9,10-Dimethylanthracene] (compound abbreviation / co-treatment: 9,10-DiMeA, exposure (dose, time): 70-100 µM, 10 min)
- gap junctional intercellular communication (dose note: (70 uM), pretreatment: D609+GJIC dysreg.): 0.888 ± 0.038
- gap junctional intercellular communication (dose note: (70 uM), pretreatment: GJIC dysreg.): 0.213 ± 0.06
- gap junctional intercellular communication (dose note: (70 uM), pretreatment: RES+GJIC dysreg.): 0.744 ± 0.14
- gap junctional intercellular communication (dose note: (70 uM), pretreatment: U0126+GJIC dysreg.): 0.342
- gap junctional intercellular communication (dose note: (100 uM), pretreatment: D609+GJIC dysreg.): 0.937 ± 0.033
- gap junctional intercellular communication (dose note: (100 uM), pretreatment: GJIC dysreg.): 0.317 ± 0.041
- gap junctional intercellular communication (dose note: (100 uM), pretreatment: RES+GJIC dysreg.): 0.871 ± 0.15
- gap junctional intercellular communication (dose note: (100 uM), pretreatment: U0126+GJIC dysreg.): 0.356 ± 0.096

Compound: c1ccc2c(c1)Cc1ccccc1-2 [Fluoren] (compound abbreviation / co-treatment: Flu, exposure (dose, time): 100 µM, 10 min)
- gap junctional intercellular communication [1]: 0.884 ± 0.12
- gap junctional intercellular communication (pretreatment: GJIC dysreg.): 0.253 ± 0.034
- gap junctional intercellular communication (pretreatment: RES+GJIC dysreg.): 0.848 ± 0.12
- gap junctional intercellular communication [2]: 0.309 ± 0.013

Compound: O=C(O)C(F)(F)C(F)(F)C(F)(F)C(F)(F)C(F)(F)C(F)(F)C(F)(F)C(F)(F)C(F)(F)F [Perfluorodecanoic acid] (compound abbreviation / co-treatment: PFDA, exposure (dose, time): 50 µM, 20 min)
- gap junctional intercellular communication [1]: 0.46 ± 0.12
- gap junctional intercellular communication (pretreatment: GJIC dysreg.): 0.22 ± 0.033
- gap junctional intercellular communication (pretreatment: RES+GJIC dysreg.): 0.225 ± 0.023
- gap junctional intercellular communication [2]: 0.239 ± 0.046

Compound: CCCCCCCCCCCC(=O)OCC(O)CO (centres undefined) [1-Monolaurin] (compound abbreviation / co-treatment: Lau, exposure (dose, time): 150 µM, 10 min)
- gap junctional intercellular communication [1]: 0.245 ± 0.028
- gap junctional intercellular communication (pretreatment: GJIC dysreg.): 0.229 ± 0.026
- gap junctional intercellular communication (pretreatment: RES+GJIC dysreg.): 0.245 ± 0.034
- gap junctional intercellular communication [2]: 0.234 ± 0.034

Compound: CC(C)(OOC(C)(C)c1ccccc1)c1ccccc1 [Dicumylperoxide] (compound abbreviation / co-treatment: DiCuOOH, exposure (dose, time): 50 µM, 15 min)
- gap junctional intercellular communication [1]: 0.884 ± 0.058
- gap junctional intercellular communication (pretreatment: GJIC dysreg.): 0.386 ± 0.088
- gap junctional intercellular communication (pretreatment: RES+GJIC dysreg.): 0.829 ± 0.081
- gap junctional intercellular communication [2]: 0.324 ± 0.11

Compound: O=S(=O)(O)C(F)(F)C(F)(F)C(F)(F)C(F)(F)C(F)(F)C(F)(F)C(F)(F)C(F)(F)F [Perfluorooctanesulfonic acid] (compound abbreviation / co-treatment: PFOSA, exposure (dose, time): 40 µM, 20 min)
- gap junctional intercellular communication [1]: 0.287 ± 0.045
- gap junctional intercellular communication (pretreatment: GJIC dysreg.): 0.279 ± 0.041
- gap junctional intercellular communication (pretreatment: RES+GJIC dysreg.): 0.329 ± 0.097
- gap junctional intercellular communication [2]: 0.289 ± 0.037

Compound: c1ccc2c(c1)-c1cccc3cccc-2c13 [Fluoranthene] (compound abbreviation / co-treatment: Fla, exposure (dose, time): 70 µM, 10 min)
- gap junctional intercellular communication [1]: 0.718 ± 0.11
- gap junctional intercellular communication (pretreatment: GJIC dysreg.): 0.245 ± 0.064
- gap junctional intercellular communication (pretreatment: RES+GJIC dysreg.): 0.937 ± 0.23
- gap junctional intercellular communication [2]: 0.285 ± 0.091

Compound: CCCCCCCCCCCCCC(=O)O[C@@H]1[C@@H](C)[C@@]2(O)[C@@H](C=C(CO)C[C@]3(O)C(=O)C(C)=C[C@@H]23)[C@@H]2C(C)(C)[C@]12OC(C)=O [12-O-tetradecanoylphorbol-13-acetate] (compound abbreviation / co-treatment: TPA, exposure (dose, time): 10 nM, 30 min)
- gap junctional intercellular communication [1]: 0.309 ± 0.077
- gap junctional intercellular communication (pretreatment: GJIC dysreg.): 0.202 ± 0.031
- gap junctional intercellular communication (pretreatment: RES+GJIC dysreg.): 1.05 ± 0.13
- gap junctional intercellular communication [2]: 0.967 ± 0.092

Compound: Cc1cccc2c1Cc1ccccc1-2 [1-Methylfluoren] (compound abbreviation / co-treatment: 1-MeFlu, exposure (dose, time): 70 µM, 10 min)
- gap junctional intercellular communication [1]: 0.84 ± 0.13
- gap junctional intercellular communication (pretreatment: GJIC dysreg.): 0.266 ± 0.076
- gap junctional intercellular communication (pretreatment: RES+GJIC dysreg.): 1 ± 0.17
- gap junctional intercellular communication [2]: 0.318 ± 0.052

Compound: c1cc2ccc3cccc4ccc(c1)c2c34 [Pyrene] (compound abbreviation / co-treatment: Pyr, exposure (dose, time): 70 µM, 10 min)
- gap junctional intercellular communication [1]: 0.844 ± 0.084
- gap junctional intercellular communication (pretreatment: GJIC dysreg.): 0.375 ± 0.078
- gap junctional intercellular communication (pretreatment: RES+GJIC dysreg.): 0.802 ± 0.099
- gap junctional intercellular communication [2]: 0.376 ± 0.061
